Laboratory results as given in paper PMC13040083, “Single-molecule dynamics reveal ATP binding alone powers substrate translocation by an ABC transporter” (Nature Communications, 2026).

How the values were obtained:
TmrA^EQB (TmrA^E523QB) = test: Single-molecule (smFRET) peptide translocation by slow-turnover TmrA^EQB in liposomes; conditions: 10 µM valinomycin, K+ buffer, Mg-ATP 3 mM, peptide 200 µM, 45 °C 5 min; and control at 30 °C
Method: For single-molecule experiments, a protein-to-lipid ratio (w/w) of 1:10,000 and an OppA-to-liposome ratio of 0.2 molecules per liposome were used. For ensemble transport assays, a protein-to-lipid ratio (w/w) of 1:20 was applied. Extruded LUVs were destabilized by incubation with 0.3% (v/v) Triton X-100 (TX-100) for 30 min. TmrAB and OppA were then added to the detergent-destabilized liposomes and incubated for 30 min at 8 °C under gentle rotation. Detergent removal was performed gradually using sequential additions of polystyrene Bio-Beads SM-2 (Bio-Rad): two incubations at 40 mg/mL (1 h and overnight), followed by two incubations at 80 mg/mL (1 h each). […]
Single-molecule FRET experiments were conducted using a flow chamber system to immobilize liposomes and transporters in an uptake-competent orientation. […] Laser powers were set to 0.8 mW/cm^2 (532 nm excitation) and 0.9 mW/cm^2 (640 nm excitation), with data recorded in 1-min intervals.
Single-molecule FRET (smFRET) measurements were performed using ALEX, allowing the assignment of detected photons based on both excitation and emission wavelength. […] From these signals, FRET efficiency (E) and stoichiometry (S) were calculated and FRET traces extracted using NanoImager software (ONI Nanoimager Development Build) and analyzed with deepFRET[56]. […] Dynamic smFRET traces were further analyzed via HMM by deepFRET. […]

TmrAB^WT [1] = test: LC-MS-based peptide transport assay; type: biochemical, Thermus thermophilus; conditions: Mg-ATP 3 mM, ATP regeneration system, 45 °C 45 min, n = 3 technical replicates
Method: For single-molecule experiments, a protein-to-lipid ratio (w/w) of 1:10,000 and an OppA-to-liposome ratio of 0.2 molecules per liposome were used. For ensemble transport assays, a protein-to-lipid ratio (w/w) of 1:20 was applied. Extruded LUVs were destabilized by incubation with 0.3% (v/v) Triton X-100 (TX-100) for 30 min. TmrAB and OppA were then added to the detergent-destabilized liposomes and incubated for 30 min at 8 °C under gentle rotation. Detergent removal was performed gradually using sequential additions of polystyrene Bio-Beads SM-2 (Bio-Rad): two incubations at 40 mg/mL (1 h and overnight), followed by two incubations at 80 mg/mL (1 h each). Finally, proteoliposomes were harvested by ultracentrifugation (100,000 × g, 30 min, 4 °C) and resuspended in the appropriate buffer.
Reactions were stopped with ice-cold liposome buffer containing 10 mM EDTA. Samples were ultracentrifuged (450,000 × g, 30 min, 4 °C), and pellets were resuspended in 200 µL of 100 mM Na2CO3 (pH 11.5), followed by a second ultracentrifugation under the same conditions. […] A final ultracentrifugation (450,000 × g, 1.5 h, 4 °C) was performed before LC-MS analysis using a Waters BioAccord system (UNIFY 3.1.0). […] Quantification was based on total ion chromatogram peak areas at the peptide-specific retention times.

TmrAB^WT [2] = test: Filter plate-based peptide transport assay; type: biochemical, Thermus thermophilus; conditions: C4F 10 µM
TmrAB^WT [3] = test: Single-liposome transport monitored by flow cytometry; type: biochemical, Thermus thermophilus; conditions: flow cytometry single-liposome assay

`CC(C)[C@@H]1NC(=O)[C@H](C)OC(=O)[C@@H](C(C)C)NC(=O)[C@@H](C(C)C)OC(=O)[C@H](C(C)C)NC(=O)[C@H](C)OC(=O)[C@@H](C(C)C)NC(=O)[C@@H](C(C)C)OC(=O)[C@H](C(C)C)NC(=O)[C@H](C)OC(=O)[C@@H](C(C)C)NC(=O)[C@@H](C(C)C)OC1=O` [valinomycin] was tested, and the “effect of dissipating membrane potential on translocation” value (TmrA^EQB (TmrA^E523QB)) was “excluded effects from a transmembrane potential”.

With GIINTLEEL [9mer peptide] the “ATP-dependent transport, in words” value (TmrAB^WT [1]) was “signiﬁcant ATP-dependent transport”.

With “RRYC(Fluorescein)KSTEL [C4F, RRYC^FLKSTEL, fluorescein-labeled peptide RRYC^FLKSTEL]” the “ATP-dependent transport, in words” value (TmrAB^WT [1]) was “signiﬁcant ATP-dependent transport”, the “peptide transport, in words” value (TmrAB^WT [2]; ATP-EDTA 3 mM) was “no transport above ADP-EDTA (3 mM) background” and the “peptide transport, in words” value (TmrAB^WT [2]; Mg-ATP 3 mM) was “robust transport”.

B1: Nb9F10: conformation-independent nanobody tethered via PEG11-biotin (antibody, V domains shown)
VH: QLQLVESGGGLVQPGDSLRLSCAVSGSALDYNAIGWFRQAPGKEREGVACISKITGNTAYADCVKGRFTISRDNAKNTVHLQMNSLKPEDTAVYYCATVTAVLLPGRCVPGKYWGQGTPVTVSS
With B1 the “effect of nanobody binding on TmrAB transport activity” value (TmrAB^WT [3]) was “did not alter transport activity”.
